Experimental data as given in paper PMC3827198, “Characterisation of AmphiAmR11, an Amphioxus (Branchiostoma floridae) D2-Dopamine-Like G Protein-Coupled Receptor” (PLoS ONE, 2013).
Counter-ions that a name gives are not always drawn. Like-named read-outs stand apart in the source and are kept apart here.

What was measured:
AmphiAmR11 [1] = biological target: T1, AmphiAmR11 (Branchiostoma floridae, UniProt A0PF35); assay: Inhibition of forskolin-stimulated cAMP levels in AmphiAmR11-expressing CHO-K1 cells (agonist mode); format: cell-based
Protocol: CHO-K1 cells were maintained in Ham’s F-12 nutrient media (Invitrogen Life Sciences) supplemented with 10% charcoal-stripped foetal bovine serum (CS-FBS) (Hyclone, Cramlington, UK), 50 U/μg penicillin/streptomycin and 4 mM L-glutamine (Invitrogen Life Sciences) in 5% CO2 at 37°C. Stably transfected cell lines were generated by the transfection of CHO-K1 cells using Lipofectamine (Invitrogen Life Sciences) as described previously [8, 9].
cAMP levels in stably transfected CHO-K1 cells were determined as described previously [8, 9, 21], except 100 µM isobutylmethylxanthine (IBMX) was used. cAMP levels are represented as a percentage of basal samples unless otherwise stated. Student’s T-test (two-tailed and unpaired) was used to test for significance. Unless otherwise stated, all data are shown as mean ± SEM. Each data point plotted was the mean of data obtained from at least three experiments. Within each experiment three separate replicate wells were analysed for each condition and the cAMP assays on each of the wells was carried out in duplicate.
Forskolin was used both to increase basal cAMP levels to make it easier to detect increases and decreases in cAMP levels in the same experiments and also to potentiate responses to agonists to more accurately determine their threshold effects [see 22]. A non-saturating 10 µM concentration of forskolin was used.
Figure 1 Effect of biogenic amines and synthetic agonists on forskolin-stimulated cAMP levels in AmphiAmR11-expressing CHO-K1 cells. Cells were pre-incubated with 100 µM IBMX for 20 min, followed by incubation with 10 µM forskolin and 100 µM IBMX in the presence of increasing concentrations of various biogenic amines (A) or synthetic agonists (B) for a further 20 min. Data are expressed as the mean ± SEM. n ≥ 3.

AmphiAmR11 [2] = biological target: T1, AmphiAmR11; assay: cell-based; format: cell-based
AmphiAmR11 [3] = biological target: T1, AmphiAmR11; assay: ERK1/2 phosphorylation in AmphiAmR11-expressing CHO-K1 cells (Western blotting); format: cell-based; settings: for Effect of antagonist on ERK1/2 phosphorylation in the absence of dopamine: 1 μM antagonist; for Duration of ERK1/2 phosphorylation response after the peak: 1 µM tyramine (level by 30 minutes) or 30 nM dopamine; for Time of peak ERK1/2 phosphorylation: 1 µM tyramine or 30 nM dopamine
AmphiAmR11 [4] = biological target: T1, AmphiAmR11; assay: Calcium mobilisation in AmphiAmR11-expressing CHO-K1 cells (Fura-2, percentage of responding cells per field of view); format: cell-based; settings: for Calcium response at 10 nM: 10 nM biogenic amine, compared with dopamine
Protocol: Stably transfected CHO-K1 cells were assayed for changes in intracellular calcium levels using an Olympus Cell^R imaging system and the fluorescent indicator Fura-2, as described previously, with modifications described by Bayliss et al.. At 1 minute into the experiment, a buffer control was added and at 2 minutes into the experiment, the specified concentration of agonist was added. A single coverslip of cells was used per concentration of agonist and the percentage of cells that responded per field of view was calculated. The results from each coverslip gave an n of 1 and each agonist concentration was repeated at least three times on different days.
Figure 6 Effect of biogenic amines and calcium pathway inhibitors on calcium mobilisation in AmphiAmR11-expressing CHO-K1 cells. AmphiAmR11-expressing cells were exposed to increasing concentrations (A) or 10 nM (B) of biogenic amines for 3 minutes and the number of responding cells per field of view were calculated. Data are expressed as the mean ± SEM. n ≥ 3. FOV, field of view; DA, dopamine; TA, tyramine; NA, noradrenaline; Adr, adrenaline; OA, octopamine.

[5] = tested on: dopamine-induced ERK1/2 activation; assay: Effect of pertussis toxin and signalling inhibitors on agonist-induced ERK1/2 activation in AmphiAmR11-expressing CHO-K1 cells; format: cell-based, Chinese hamster; settings: for Effect of inhibitor on dopamine-induced ERK1/2 phosphorylation: 10 µM inhibitor, 5 minutes
Protocol: Phospho-extracellular signal-related kinase (Phospho-ERK) levels were determined essentially as described previously. Minor modifications have been described. ERK1/2 phosphorylation levels were quantified by densitometry. The developed films were scanned in and analysed using the software program, Aida. The data generated by Aida was then processed using Microsoft Excel. Values for the kinase expression and activity levels were defined as 100% in the control samples. Student’s T-test (two-tailed and unpaired) was used to test for significance.
Figure 5 Effect of pertussis toxin and signalling inhibitors on dopamine-induced ERK1/2 activation in AmphiAmR11-expressing CHO-K1 cells. For the pertussis toxin experiment, AmphiAmR11-expressing CHO-K1 cells were pre-incubated with pertussis toxin (200 ng/ml) for 16 hours prior to serum-starvation for 2 hours in the absence of the toxin. Cells were then stimulated for 5 mins with 10 nM dopamine (open bar) or F-12 Hams control (black bar). For all other inhibitors, AmphiAmR11-expressing CHO-K1 cells were serum starved for 2 hours including incubation with 10 µM inhibitor or F-12 Hams control for the final 20 (AG1296 and AG1478) or 30 (PP2, LY294002, Ro31-8220, U0126, U73122 and U73343) minutes. Cells were then stimulated for 5 minutes with 10 nM dopamine […] in the presence of the inhibitor. Basal measurement in the absence of dopamine and inhibitor (first black bar) and the dopamine-only response in the absence of inhibitor (first open bar) are shown. (A) Representative blots from three or four independent experiments. […] Data are expressed as the mean + SEM. n = 3 - 4. DA, dopamine; PTX, pertussis toxin; Ro, Ro 31-8220; LY, LY294002.
Figure S3. Time courses for the effect of dopamine and tyramine on ERK1/2 phosphorylation in AmphiAmR11-expressing CHO-K1 cells. (A and B) AmphiAmR11-expressing CHO-K1 cells were serum-starved for 2 hours, prior to stimulation with tyramine or dopamine at the specified concentration for the specified length of time. Equal quantities of cell lysates were separated by SDS-PAGE and analysed for pERK or tERK by Western blotting. (C and D): AmphiAmR11-expressing CHO-K1 cells were incubated with pertussis toxin (200 ng/mL) for 16 hours followed by stimulation as described for Figures A and B. (A to D) Representative blot for each condition from three to four independent experiments. (E) Summary of the quantified blots. Data are expressed as the mean ± SEM. n = 3-4. PTX, pertussis toxin; Min, minutes.

AmphiAmR11 [6] = biological target: T1, AmphiAmR11; assay: Block of tyramine-induced inhibition of forskolin-stimulated cAMP levels in AmphiAmR11-expressing CHO-K1 cells; format: cell-based; settings: 1 μM antagonist, 30 nM tyramine, 10 µM forskolin
DD2R = tested on: DD2R; set-up: method as in PMID 12391323; settings: cited from earlier work; for Antagonist effect at invertebrate D2-like receptor DD2R at high concentration: 10 µM
CeDOP2S = tested on: CeDOP2S; set-up: method as in PMID 12887685; settings: cited from earlier work; for Antagonist effect at invertebrate D2-like receptor CeDOP2S at high concentration: 10 µM
CeDOP2L = tested on: CeDOP2L; set-up: method as in PMID 12887685; settings: cited from earlier work; for Antagonist effect at invertebrate D2-like receptor CeDOP2L at high concentration: 10 µM
AmphiAmR11 [7] = biological target: T1, AmphiAmR11; assay: Block of dopamine-induced ERK1/2 activation in AmphiAmR11-expressing CHO-K1 cells by antagonists; format: cell-based; settings: 1 µM antagonist, 10 nM dopamine, 5 min
[8] = 10 µM forskolin, 100 µM IBMX, 20 min, full concentration response curves, read-out: EC50 for decrease in forskolin-stimulated cAMP levels
[9] = amines at 100 µM, pertussis toxin 200 ng/mL, 16 hours
[10] = pertussis toxin 200 ng/mL, 16 h, up to 100 µM

T1 sequence (A0PF35 entry or part of it): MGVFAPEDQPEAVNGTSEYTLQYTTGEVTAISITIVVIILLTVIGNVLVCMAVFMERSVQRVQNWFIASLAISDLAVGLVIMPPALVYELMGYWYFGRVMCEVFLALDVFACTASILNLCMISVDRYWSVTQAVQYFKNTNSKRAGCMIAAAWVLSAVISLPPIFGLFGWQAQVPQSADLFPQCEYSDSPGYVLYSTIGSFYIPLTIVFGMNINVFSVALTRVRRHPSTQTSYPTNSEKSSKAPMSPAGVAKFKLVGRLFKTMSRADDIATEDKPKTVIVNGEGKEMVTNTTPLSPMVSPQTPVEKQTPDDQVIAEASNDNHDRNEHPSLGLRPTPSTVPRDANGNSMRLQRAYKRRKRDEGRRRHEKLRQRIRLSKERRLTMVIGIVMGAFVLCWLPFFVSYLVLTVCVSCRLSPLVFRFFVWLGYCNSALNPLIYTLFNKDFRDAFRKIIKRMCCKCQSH

NCC(O)c1ccc(O)cc1 (racemic) [octopamine, (±)-p-octopamine hydrochloride]
EC50 (AmphiAmR11 [1]; [8]): 1300 nM
Effect on forskolin-stimulated cAMP levels following pertussis toxin treatment (AmphiAmR11 [2]; [9]): did not induce an increase
Effect on ERK1/2 phosphorylation at 10 nM (AmphiAmR11 [3]; 10 nM biogenic amine, 5 min): not able to increase
Calcium response at 10 nM (AmphiAmR11 [4]): less effective than dopamine

COc1cc2ncc(-c3ccccc3)nc2cc1OC [AG1296, tyrphostin AG1296]
Effect of inhibitor on dopamine-induced ERK1/2 phosphorylation ([5]; 10 nM dopamine): neither inhibitor had a significant effect

COc1cc2ncnc(Nc3cccc(Cl)c3)c2cc1OC [AG1478, tyrphostin AG 1478]
Effect of inhibitor on dopamine-induced ERK1/2 phosphorylation ([5]; 10 nM dopamine): neither inhibitor had a significant effect

CC(C)(C)n1nc(-c2ccc(Cl)cc2)c2c(N)ncnc21 [PP2, 3-(4-chlorophenyl) 1-(1,1-dimethylethyl)-1H-pyrazolo[3,4-d]pyrimidin-4-amine]
Effect of inhibitor on dopamine-induced ERK1/2 phosphorylation ([5]; 10 nM dopamine): no effect

Cn1cc(C2=C(c3cn(CCCSC(=N)N)c4ccccc34)C(=O)NC2=O)c2ccccc21 [Ro 31-8220]
Effect of inhibitor on dopamine-induced ERK1/2 phosphorylation ([5]; 10 nM dopamine): near basal levels

CN1CCc2cc(Cl)c(O)cc2[C@@H](c2ccccc2)C1 [SCH23390, R(+)-7-chloro-8-hydroxy-3-methyl-1-phenyl-2,3,4,5-tetrahydro-^1H-3-benzazepine hydrochloride]
Block of tyramine-induced inhibition of forskolin-stimulated cAMP levels (AmphiAmR11 [6]): no significant blocking effect
Effect on dopamine-mediated signalling via DD2R (DD2R): not to affect
Effect on dopamine-mediated signalling via CeDOP2S (CeDOP2S): not to affect
Effect on dopamine-mediated signalling via CeDOP2L (CeDOP2L): not to affect

N#CC(=C(N)Sc1ccccc1N)C(C#N)=C(N)Sc1ccccc1N [U0126, 1,4-Diamino-2,3-dicyano-1,4-bis(o-aminophenylmercapto)butadiene]
Effect of inhibitor on dopamine-induced ERK1/2 phosphorylation ([5]; 10 nM dopamine): abolished

CNC[C@H](O)c1ccc(O)c(O)c1 [adrenaline, (-)-adrenaline]
EC50 (AmphiAmR11 [1]): 1340 nM
Concentration dependence of increase in forskolin-stimulated cAMP levels following pertussis toxin (AmphiAmR11 [2]): concentration-dependent effects
Concentrations coupling AmphiAmR11 to an increase in cAMP levels (AmphiAmR11 [2]): above 1 µM
Effect on forskolin-stimulated cAMP levels following pertussis toxin treatment (AmphiAmR11 [2]): increase in forskolin-stimulated cAMP levels
Effect on ERK1/2 phosphorylation at 10 nM (AmphiAmR11 [3]): not able to increase
Calcium response at 10 nM (AmphiAmR11 [4]): less effective than dopamine

CC(C)(C)[C@]1(O)CCN2C[C@H]3c4ccccc4CCc4cccc(c43)[C@@H]2C1 [butaclamol, (+)-butaclamol hydrochloride]
Block of tyramine-induced inhibition of forskolin-stimulated cAMP levels (AmphiAmR11 [6]): no significant blocking effect
Effect of antagonist on ERK1/2 phosphorylation in the absence of dopamine (AmphiAmR11 [3]): did not exhibit any agonistic properties
Block of dopamine-induced ERK1/2 activation (AmphiAmR11 [7]): no significant effect
Antagonist effect at invertebrate D2-like receptor DD2R at high concentration (DD2R): only a partial effect
Antagonist effect at invertebrate D2-like receptor CeDOP2S at high concentration (CeDOP2S): only a partial effect
Antagonist effect at invertebrate D2-like receptor CeDOP2L at high concentration (CeDOP2L): only a partial effect

CN(C)CCCN1c2ccccc2Sc2ccc(Cl)cc21 [chlorpromazine]
Effect on dopamine-mediated signalling via DD2R (DD2R): not to affect
Effect on dopamine-mediated signalling via CeDOP2S (CeDOP2S): not to affect
Effect on dopamine-mediated signalling via CeDOP2L (CeDOP2L): not to affect

NCCc1ccc(O)c(O)c1 [dopamine, dopamine hydrochloride]
EC50 (AmphiAmR11 [1]): 16.7 nM
EC50 (AmphiAmR11 [2]): 470 nM
Concentrations coupling AmphiAmR11 to an increase in cAMP levels (AmphiAmR11 [2]; after pertussis toxin): less than 1 µM
Effect on forskolin-stimulated cAMP levels following pertussis toxin treatment (AmphiAmR11 [2]; [9]): increase in forskolin-stimulated cAMP levels
EC50 (AmphiAmR11 [3]): 1.27 nM
Duration of ERK1/2 phosphorylation response after the peak (AmphiAmR11 [3]): more sustained ERK1/2 phosphorylation response
Time of peak ERK1/2 phosphorylation (AmphiAmR11 [3]): approximately 5 minutes
Fold more potent than tyramine in MAPK assay (AmphiAmR11 [3]; ratio of EC50 values): 10 fold
EC50 (AmphiAmR11 [4]): 1.68 nM
Fold more potent than tyramine in calcium assay (AmphiAmR11 [4]; ratio of EC50 values): approximately 450 fold

Cl.Cl.OCCN1CCN(CC/C=C2/c3ccccc3Sc3ccc(C(F)(F)F)cc32)CC1 [flupenthixol, cis-(Z)-flupenthixol dihydrochloride]
Block of tyramine-induced inhibition of forskolin-stimulated cAMP levels (AmphiAmR11 [6]): no significant blocking effect
Effect of antagonist on ERK1/2 phosphorylation in the absence of dopamine (AmphiAmR11 [3]): did not exhibit any agonistic properties
Block of dopamine-induced ERK1/2 activation (AmphiAmR11 [7]): no significant effect
Antagonist effect at invertebrate D2-like receptor DD2R at high concentration (DD2R): only a partial effect
Antagonist effect at invertebrate D2-like receptor CeDOP2S at high concentration (CeDOP2S): only a partial effect
Antagonist effect at invertebrate D2-like receptor CeDOP2L at high concentration (CeDOP2L): only a partial effect

NC[C@H](O)c1ccc(O)c(O)c1 [noradrenaline, (-)-noradrenaline hydrochloride]
EC50 (AmphiAmR11 [1]): 844 nM
Concentrations coupling AmphiAmR11 to an increase in cAMP levels (AmphiAmR11 [2]; after pertussis toxin): above 1 µM
Effect on forskolin-stimulated cAMP levels following pertussis toxin treatment (AmphiAmR11 [2]; [9]): increase in forskolin-stimulated cAMP levels
Concentration dependence of increase in forskolin-stimulated cAMP levels following pertussis toxin (AmphiAmR11 [2]; [10]): concentration-dependent effects
Effect on ERK1/2 phosphorylation at 10 nM (AmphiAmR11 [3]; 10 nM biogenic amine, 5 min): not able to increase
Calcium response at 10 nM (AmphiAmR11 [4]): less effective than dopamine

O=C(CCCN1CCC2(CC1)C(=O)NCN2c1ccccc1)c1ccc(F)cc1 [spiperone, spiperone hydrochloride]
Effect of antagonist on ERK1/2 phosphorylation in the absence of dopamine (AmphiAmR11 [3]): did not exhibit any agonistic properties
Block of dopamine-induced ERK1/2 activation (AmphiAmR11 [7]): no significant effect
Effect on dopamine-mediated signalling via DD2R (DD2R): little or no effect
Effect on dopamine-mediated signalling via CeDOP2S (CeDOP2S): little or no effect
Effect on dopamine-mediated signalling via CeDOP2L (CeDOP2L): little or no effect

NCCc1ccc(O)cc1 [tyramine, tyramine hydrochloride]
EC50 (AmphiAmR11 [1]; [8]): 7.47 nM
Concentrations coupling AmphiAmR11 to an increase in cAMP levels (AmphiAmR11 [2]; after pertussis toxin): above 1 µM
Effect on forskolin-stimulated cAMP levels following pertussis toxin treatment (AmphiAmR11 [2]; [9]): increase in forskolin-stimulated cAMP levels
Concentration dependence of increase in forskolin-stimulated cAMP levels following pertussis toxin (AmphiAmR11 [2]; [10]): concentration-dependent effects
EC50 (AmphiAmR11 [3]): 18.2 nM
Duration of ERK1/2 phosphorylation response after the peak (AmphiAmR11 [3]): approximately half that of its peak at 5 minutes
Time of peak ERK1/2 phosphorylation (AmphiAmR11 [3]): approximately 5 minutes
EC50 (AmphiAmR11 [4]; 3 minutes exposure, read-out: EC50 for calcium mobilisation (percentage of responding cells per field of view)): 767 nM

pertussis toxin
Effect of pertussis toxin treatment on amine-mediated decreases in forskolin-stimulated cAMP levels (AmphiAmR11 [2]; pertussis toxin 200 ng/mL, 16 hours): inhibit the amine-mediated decreases
Effect of pertussis toxin on tyramine- and dopamine-induced ERK1/2 phosphorylation at multiple time points ([5]; pertussis toxin 200 ng/mL, 16 hours, 1 µM tyramine, 30 nM dopamine): abolished
Effect of pertussis toxin on ERK1/2 response at 5 minutes of dopamine stimulation ([5]; pertussis toxin 200 ng/ml, 16 hours, 10 nM dopamine): abolished
